# Source: ChEMBL document CHEMBL3822364, “Synthesis, characterization and antimicrobial activity of novel Schiff base tethered boronate esters of 1,2-O-isopropylidene-α-d-xylofuranose” (2016)
# Calls of active or inactive are those of the source. The calls are words filed in the database; no cut-off is given here.
# Key:
# Candida albicans [1] = test: Antifungal activity against Candida albicans MTCC 3017 assessed as zone of inhibition at 100 ug/well measured after 48 hrs by agar well diffusion method; type: functional; conditions: MTCC 3017, 48 h, read-out: DIZ
# Salmonella typhi [2] = test: Antibacterial activity against Salmonella typhi measured after 24 hrs by NCCL protocol based broth dilution method; type: functional, Salmonella enterica subsp. enterica serovar Typhi
# Staphylococcus aureus [3] = test: Antibacterial activity against Staphylococcus aureus MTCC 3160 measured after 24 hrs by NCCL protocol based broth dilution method; type: functional
# Salmonella typhi [4] = test: Antibacterial activity against Salmonella typhi assessed as zone of inhibition at 100 ug/well measured after 24 hrs by agar well diffusion method; type: functional, Salmonella enterica subsp. enterica serovar Typhi; conditions: Salmonella enterica, read-out: DIZ
# Staphylococcus aureus [5] = test: Antibacterial activity against Staphylococcus aureus MTCC 3160 assessed as zone of inhibition at 100 ug/well measured after 24 hrs by agar well diffusion method; type: functional; conditions: MTCC 3160, 24 h, read-out: DIZ
# Micrococcus luteus [6] = test: Antibacterial activity against Micrococcus luteus MTCC 106 measured after 24 hrs by NCCL protocol based broth dilution method; type: functional
# Streptococcus mutans [7] = test: Antibacterial activity against Streptococcus mutans MTCC 497 assessed as zone of inhibition at 100 ug/well measured after 24 hrs by agar well diffusion method; type: functional; conditions: MTCC 497, 24 h, read-out: DIZ
# Micrococcus luteus [8] = test: Antibacterial activity against Micrococcus luteus MTCC 106 assessed as zone of inhibition at 100 ug/well measured after 24 hrs by agar well diffusion method; type: functional; conditions: MTCC 106, 24 h, read-out: DIZ
# Streptococcus mutans [9] = test: Antibacterial activity against Streptococcus mutans MTCC 497 measured after 24 hrs by NCCL protocol based broth dilution method; type: functional
# Aspergillus fumigatus [10] = test: Antifungal activity against Aspergillus fumigatus MTCC 343 measured after 48 hrs by NCCL protocol based broth dilution method; type: functional
# Aspergillus fumigatus [11] = test: Antifungal activity against Aspergillus fumigatus MTCC 343 assessed as zone of inhibition at 100 ug/well measured after 48 hrs by agar well diffusion method; type: functional; conditions: MTCC 343, 48 h, read-out: DIZ
# Candida albicans [12] = test: Antifungal activity against Candida albicans MTCC 3017 measured after 48 hrs by NCCL protocol based broth dilution method; type: functional
# Salmonella paratyphi [13] = test: Antibacterial activity against Salmonella paratyphi assessed as zone of inhibition at 100 ug/well measured after 24 hrs by agar well diffusion method; type: functional, Salmonella enterica subsp. enterica serovar Paratyphi A; conditions: Salmonella enterica, read-out: DIZ
# Salmonella paratyphi [14] = test: Antibacterial activity against Salmonella paratyphi measured after 24 hrs by NCCL protocol based broth dilution method; type: functional, Salmonella enterica subsp. enterica serovar Paratyphi A
# Klebsiella pneumoniae [15] = test: Antibacterial activity against Klebsiella pneumoniae MTCC 3384 assessed as zone of inhibition at 100 ug/well measured after 24 hrs by agar well diffusion method; type: functional; conditions: MTCC 3384, 24 h, read-out: DIZ
# Klebsiella pneumoniae [16] = test: Antibacterial activity against Klebsiella pneumoniae MTCC 3384 measured after 24 hrs by NCCL protocol based broth dilution method; type: functional
# [17] = Salmonella enterica subsp. enterica serovar Typhi
# [18] = Salmonella enterica subsp. enterica serovar Paratyphi A
SMILES,zone of inhibition at 100 µg/disc (Candida albicans [1]),MIC (Salmonella typhi [2]; Salmonella enterica),"MIC (Staphylococcus aureus [3]; MTCC 3160, 24 h)",zone of inhibition at 100 µg/disc (Salmonella typhi [4]),zone of inhibition at 100 µg/disc (Staphylococcus aureus [5]),"MIC (Micrococcus luteus [6]; MTCC 106, 24 h)",zone of inhibition at 100 µg/disc (Streptococcus mutans [7]),zone of inhibition at 100 µg/disc (Micrococcus luteus [8]),"MIC (Streptococcus mutans [9]; MTCC 497, 24 h)","MIC (Aspergillus fumigatus [10]; MTCC 343, 48 h)",zone of inhibition at 100 µg/disc (Aspergillus fumigatus [11]),"MIC (Candida albicans [12]; MTCC 3017, 48 h)",zone of inhibition at 100 µg/disc (Salmonella paratyphi [13]),MIC (Salmonella paratyphi [14]; Salmonella enterica),zone of inhibition at 100 µg/disc (Klebsiella pneumoniae [15]),"MIC (Klebsiella pneumoniae [16]; MTCC 3384, 24 h)",other results
CC1(C)O[C@H]2O[C@@H]3COB(c4ccc(C=O)cc4)O[C@@H]3[C@H]2O1,18 mm,31.2 µg/mL,125 µg/mL,22 mm,12 mm,125 µg/mL,21 mm,12 mm,62.5 µg/mL,250 µg/mL,0 mm,125 µg/mL,21 mm,31.2 µg/mL,20 mm,62.5 µg/mL,–
Cc1ccc(/N=C/c2ccc(B3OC[C@H]4O[C@@H]5OC(C)(C)O[C@@H]5[C@H]4O3)cc2)cc1,12 mm,125 µg/mL,125 µg/mL,18 mm,17 mm,125 µg/mL,17 mm,12 mm,125 µg/mL,500 µg/mL,0 mm,250 µg/mL,0 mm,500 µg/mL,24 mm,62.5 µg/mL,–
CC1(C)O[C@H]2O[C@@H]3COB(c4cccc(/N=C/c5cc(Br)ccc5O)c4)O[C@@H]3[C@H]2O1,18 mm,31.2 µg/mL,125 µg/mL,24 mm,13 mm,31.2 µg/mL,21 mm,22 mm,62.5 µg/mL,250 µg/mL,0 mm,62.5 µg/mL,14 mm,62.5 µg/mL,21 mm,62.5 µg/mL,–
CC1(C)O[C@H]2O[C@@H]3COB(c4cccc(/N=C/c5ccc6ccccc6c5O)c4)O[C@@H]3[C@H]2O1,19 mm,62.5 µg/mL,125 µg/mL,23 mm,13 mm,62.5 µg/mL,17 mm,17 mm,125 µg/mL,31.2 µg/mL,33 mm,62.5 µg/mL,13 mm,125 µg/mL,19 mm,62.5 µg/mL,–
OB(O)c1ccc(/C=N/c2ccc(F)cc2)cc1,0 mm,500 µg/mL,500 µg/mL,9 mm,9 mm,500 µg/mL,11 mm,0 mm,250 µg/mL,500 µg/mL,0 mm,500 µg/mL,0 mm,500 µg/mL,0 mm,500 µg/mL,–
CC1(C)O[C@H]2O[C@@H]3COB(c4ccc(/C=N/c5ccc(Cl)cc5)cc4)O[C@@H]3[C@H]2O1,11 mm,62.5 µg/mL,125 µg/mL,22 mm,16 mm,125 µg/mL,22 mm,13 mm,62.5 µg/mL,500 µg/mL,0 mm,250 µg/mL,13 mm,125 µg/mL,24 mm,62.5 µg/mL,–
CC1(C)O[C@H]2O[C@@H]3COC(c4ccc(C=O)cc4)O[C@@H]3[C@H]2O1 (stereo partly drawn),0 mm,–,–,0 mm,0 mm,–,0 mm,0 mm,–,–,0 mm,–,0 mm,–,0 mm,–,MIC (Salmonella typhi [2]; [17]): inactive; MIC (Staphylococcus aureus [3]): inactive; MIC (Micrococcus luteus [6]): inactive; MIC (Streptococcus mutans [9]): inactive; MIC (Aspergillus fumigatus [10]): inactive; MIC (Candida albicans [12]): inactive; MIC (Salmonella paratyphi [14]; [18]): inactive; MIC (Klebsiella pneumoniae [16]): inactive
CC1(C)O[C@H]2O[C@@H]3COC(c4cccc(C=O)c4)O[C@@H]3[C@H]2O1 (stereo partly drawn),0 mm,–,–,0 mm,0 mm,–,0 mm,0 mm,–,–,0 mm,–,0 mm,–,0 mm,–,MIC (Salmonella typhi [2]; [17]): inactive; MIC (Staphylococcus aureus [3]): inactive; MIC (Micrococcus luteus [6]): inactive; MIC (Streptococcus mutans [9]): inactive; MIC (Aspergillus fumigatus [10]): inactive; MIC (Candida albicans [12]): inactive; MIC (Salmonella paratyphi [14]; [18]): inactive; MIC (Klebsiella pneumoniae [16]): inactive
CC1(C)O[C@H]2O[C@@H]3COB(c4cccc(/C=N/c5ccccc5)c4)O[C@@H]3[C@H]2O1,11 mm,62.5 µg/mL,125 µg/mL,21 mm,13 mm,250 µg/mL,21 mm,14 mm,62.5 µg/mL,500 µg/mL,0 mm,250 µg/mL,21 mm,62.5 µg/mL,19 mm,125 µg/mL,–
CC1(C)O[C@H]2O[C@@H]3COB(c4ccc(/C=N/c5ccccc5)cc4)O[C@@H]3[C@H]2O1,11 mm,62.5 µg/mL,125 µg/mL,20 mm,16 mm,250 µg/mL,21 mm,14 mm,62.5 µg/mL,500 µg/mL,0 mm,125 µg/mL,0 mm,500 µg/mL,21 mm,62.5 µg/mL,–
CC1(C)O[C@H]2O[C@@H]3COB(c4ccccc4F)O[C@@H]3[C@H]2O1,11 mm,250 µg/mL,125 µg/mL,11 mm,11 mm,250 µg/mL,12 mm,8 mm,125 µg/mL,500 µg/mL,9 mm,500 µg/mL,9 mm,125 µg/mL,12 mm,250 µg/mL,–
CC1(C)O[C@H]2O[C@@H]3COB(c4ccc(/C=N/c5ccc(F)cc5)cc4)O[C@@H]3[C@H]2O1,16 mm,62.5 µg/mL,62.5 µg/mL,20 mm,18 mm,62.5 µg/mL,21 mm,15 mm,31.2 µg/mL,250 µg/mL,0 mm,125 µg/mL,22 mm,31.2 µg/mL,21 mm,31.2 µg/mL,–
OC(Cn1cncn1)(Cn1cncn1)c1ccc(F)cc1F [FLUCONAZOLE],18 mm,–,–,–,–,–,–,–,–,–,–,62.5 µg/mL,–,–,–,–,–
CN[C@@H]1[C@H](O[C@H]2[C@H](O[C@H]3[C@H](O)[C@@H](O)[C@H](N=C(N)N)[C@@H](O)[C@@H]3N=C(N)N)O[C@@H](C)[C@]2(O)C=O)O[C@@H](CO)[C@H](O)[C@H]1O.CN[C@@H]1[C@H](O[C@H]2[C@H](O[C@H]3[C@H](O)[C@@H](O)[C@H](N=C(N)N)[C@@H](O)[C@@H]3N=C(N)N)O[C@@H](C)[C@]2(O)C=O)O[C@@H](CO)[C@H](O)[C@H]1O.O=S(=O)(O)O.O=S(=O)(O)O.O=S(=O)(O)O [STREPTOMYCIN SULFATE],–,31.2 µg/mL,15.6 µg/mL,25 mm,26 mm,31.2 µg/mL,26 mm,20 mm,31.2 µg/mL,–,–,–,23 mm,15.6 µg/mL,25 mm,31.2 µg/mL,–
C[C@@H]1C[C@@H]([C@H](O)CC2CC(=O)NC(=O)C2)C(=O)[C@@H](C)C1 [CYCLOHEXIMIDE],–,–,–,–,–,–,–,–,–,125 µg/mL,25 mm,–,–,–,–,–,–
